One series concerns the target KRAS G12D (Homo sapiens, UniProt P01116, G12D). Kind of series: GDP-GTP exchange assay, KRAS G12D. The series is classed as biochemical. Particulars: bodipy-loaded KRAS G12D 2.5 nM, GppNHp 500 uM, SOS1 150 nM; 4 hours pre-incubation, 2 hours incubation; read-out: G12D_exchange. As to the method: Inhibitors were serially diluted in DMSO and a volume of 0.1 μL was transferred to the wells of a black low volume 384-well plate. […] The exchange was initiated by the addition of a 5 μL/well volume containing 1 mM GppNHp and 300 nM SOS1 in assay buffer. […] The reaction plates were incubated at ambient temperature for 2 hours, a time estimated for complete GDP-GTP exchange in the absence of inhibitor.
Either GraphPad prism or Genedata Screener SmartFit was used to analyze the data. The IC50 values were derived by fitting the data to a four parameter logistic equation producing a sigmoidal dose-response curve with a variable Hill coefficient.
“NA” indicates IC50 not available.

The target in a further series is KRAS G12V mutant (Homo sapiens, UniProt P01116, G12V). Nature of the series: GDP-GTP exchange assay, KRAS G12V. The series is classed as biochemical. The following applies: bodipy loaded KRAS G12V 2.5 nM; 3 hours incubation after adding GppNHp-SOS1 mixture; read-out: G12V_exchange.
A further series concerns Caco-2 cells. Nature of the series: Caco2 assay (permeability, A-B). The series is classed as in vitro ADME. The following applies: Papp absorptive direction (A-B), test compound 50 μM, 120 minutes at 37° C. How it is done:
Caco-2 cells are grown at 37° C. in an atmosphere of 5% CO2 in DMEM growth medium supplemented with 10% (v/v) fetal bovine serum, 1% (v/v) nonessential amino acids, penicillin (100 U/mL), and streptomycin (100 μg/mL). Confluent cell monolayers are subcultured every 7 days or 4 days for Caco-2 by treatment with 0.05% trypsin containing […]. Caco-2 cells are seeded in 96-well Transwell plates. The seeding density for Caco-2 cells is 14,000 cells/well. DMEM growth medium is replaced every other day after seeding. Cell monolayers are used for transport assays between 22 and 25 days for Caco-2 cells.
Cell culture medium is removed and replaced with HBSS. To measure the TEER, the HBSS is added into the donor compartment (apical side) and receiver compartment (basolateral side). The TEER is measured by using a REMS Autosampler to ensure the integrity of the cell monolayers. Caco-2 cell monolayers with TEER values ≥300 Ω·cm^2 are used for transport experiments. To determine the Papp in the absorptive direction (A-B), solution of test compound (50 μM) in HBSS is added to the donor compartment (apical side), while HBSS solution with 4% BSA is added to the receiver compartment (basolateral side). The apical volume was 0.075 mL, and the basolateral volume is 0.25 mL. The incubation period is 120 minutes at 37° C. in an atmosphere of 5% CO2. At the end of the incubation period, samples from the donor and receiver sides are removed and an equal volume of acetonitrile is added for protein precipitation. The supernatants are collected after centrifugation (3000 rpm, Allegra X-14R Centrifuge from Beckman Coulter, Indianapolis, IN) for LCMS analysis. The permeability value is determined according to the equation:
[formula] • where the flux rate (F, mass/time) is calculated from the slope of cumulative amounts of compound of interest on the receiver side, SA is the surface area of the cell membrane, VD is the donor volume, and MD is the initial amount of the solution in the donor chamber.
The symbol “+” indicates a Caco-2 value of […], “++” indicates a Caco-2 value of >0.5 but ≤1; and “+++” indicates a Caco-2 value of >1. “NA” indicates IC50 not available.

Sequence of KRAS G12V mutant (P01116 1-188 isoform P01116-2 G12V): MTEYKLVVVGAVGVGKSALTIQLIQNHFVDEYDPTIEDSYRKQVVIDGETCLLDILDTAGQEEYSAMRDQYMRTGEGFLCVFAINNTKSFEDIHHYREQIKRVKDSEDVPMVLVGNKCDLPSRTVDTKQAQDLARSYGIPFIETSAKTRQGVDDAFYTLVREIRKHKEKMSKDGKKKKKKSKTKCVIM
Sequence of KRAS G12D (P01116 1-188 isoform P01116-2 G12D): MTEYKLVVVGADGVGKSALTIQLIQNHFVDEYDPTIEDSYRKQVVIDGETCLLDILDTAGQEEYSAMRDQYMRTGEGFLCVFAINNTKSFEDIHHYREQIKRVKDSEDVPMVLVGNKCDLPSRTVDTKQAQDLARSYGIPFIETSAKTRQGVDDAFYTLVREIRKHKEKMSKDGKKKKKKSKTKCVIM

As for `COC(=O)N1CCC[C@@H]1c1cc2c(-n3cncn3)nc3c(F)c(-c4cccc(C)c4Cl)c(CCC#N)cc3c2n1[C@H]1[C@H]2CN[C@@H]1C2` [Example 29, Methyl (2R)-2-(1-((1R,4R,5S)-2-azabicyclo[2.1.1]hexan-5-yl)-7-(2-chloro-3-methylphenyl)-8-(2-cyanoethyl)-6-fluoro-4-(1H-1,2,4-triazol-1-yl)-1H-pyrrolo[3,2-c]quinolin-2-yl)pyrrolidine-1-carboxylate], the IC50 on KRAS G12D and at KRAS G12V mutant was under 100 nM in each case. The Caco-2 result with Caco-2 cells (Table 4) is on record as “+++ (a Caco-2 value of >1)”.

`Cc1cc2c(O[C@@H](C)[C@@H]3CCCN3C)nc3c(F)c(-c4c[nH]c5c(F)cc(F)cc45)c(CCC#N)cc3c2n1[C@H]1[C@H]2CN[C@@H]1C2` [Example 2, 3-(1-((1R,4R,5S)-2-Azabicyclo[2.1.1]hexan-5-yl)-7-(5,7-difluoro-1H-indol-3-yl)-6-fluoro-2-methyl-4-((S)-1-((S)-1-methylpyrrolidin-2-yl)ethoxy)-1H-pyrrolo[3,2-c]quinolin-8-yl)propanenitrile]: the IC50 at KRAS G12D and on KRAS G12V mutant was under 100 nM each time. In the series with Caco-2 cells (Table 3), the Caco-2 result is “+ (a Caco-2 value of 50.5)”.

`COC(=O)N1CCC[C@@H]1c1cc2c(-c3ccc(C(C)(C)O)nc3)nc3c(F)c(-c4cccc(Cl)c4Cl)c(CCC#N)cc3c2n1[C@H]1[C@H]2CN[C@@H]1C2` [Example 40, Methyl (2R)-2-(1-((1R,4R,5S)-2-azabicyclo[2.1.1]hexan-5-yl)-8-(2-cyanoethyl)-7-(2,3-dichlorophenyl)-6-fluoro-4-(6-(2-hydroxypropan-2-yl)pyridin-3-yl)-1H-pyrrolo[3,2-c]quinolin-2-yl)pyrrolidine-1-carboxylate]: the IC50 on KRAS G12D and at KRAS G12V mutant was under 100 nM throughout. The Caco-2 entry in the series with Caco-2 cells (Table 4) was “++ (a Caco-2 value of >0.5 but ≤1)”.

In the case of `Cc1cc2c(-c3c(CCC#N)cc4c(nc(O[C@@H](C)[C@@H]5CCCN5C)c5cc(C)n([C@H]6[C@H]7CN[C@@H]6C7)c54)c3F)c[nH]c2cc1F` [Example 3, 3-(1-((1R,4R,5S)-2-Azabicyclo[2.1.1]hexan-5-yl)-6-fluoro-7-(6-fluoro-5-methyl-1H-indol-3-yl)-2-methyl-4-((S)-1-((S)-1-methylpyrrolidin-2-yl)ethoxy)-1H-pyrrolo[3,2-c]quinolin-8-yl)propanenitrile], the IC50 at KRAS G12D and at KRAS G12V mutant was under 100 nM each time. In addition, in the series with Caco-2 cells (Table 3), the Caco-2 result is given as “+ (a Caco-2 value of 50.5)”.

Turning to `CC(=O)N1CC[C@H](n2ncc3c(O[C@@H](C)[C@@H]4CCCN4C)nc4c(F)c(-c5cccc6cccc(C#N)c56)c(C#N)cc4c32)C[C@H]1CC#N` (single isomer, unassigned) [Example 7], the IC50 on KRAS G12D and at KRAS G12V mutant was under 100 nM in each case. For the same molecule, the Caco-2 result in the series with Caco-2 cells (Table 3) is listed as “+++ (a Caco-2 value of >1)”.

For `CCOC(=O)N1CCC[C@@H]1c1cc2c(-c3ccc(C(C)(C)O)nc3)nc3c(F)c(-c4cccc(Cl)c4Cl)c(CCC#N)cc3c2n1[C@H]1[C@H]2CN[C@@H]1C2` [Example 41, Ethyl (2R)-2-(1-((1R,4R,5S)-2-azabicyclo[2.1.1]hexan-5-yl)-8-(2-cyanoethyl)-7-(2,3-dichlorophenyl)-6-fluoro-4-(6-(2-hydroxypropan-2-yl)pyridin-3-yl)-1H-pyrrolo[3,2-c]quinolin-2-yl)pyrrolidine-1-carboxylate], the IC50 at KRAS G12D and at KRAS G12V mutant was under 100 nM in each case. Besides, in the series on Caco-2 cells (Table 4), the Caco-2 result is recorded as “+++ (a Caco-2 value of >1)”.

Regarding `CC(O)c1nc2c(F)c(-c3cccc(Cl)c3Cl)c(CCC#N)cc2c2c1cc([C@H]1C[C@H]3C[C@H]3N1C(=O)C1(C)CC1)n2[C@H]1[C@H]2CN[C@@H]1C2` (stereo partly drawn) [Example 62, 3-(1-((1R,4R,5S)-2-Azabicyclo[2.1.1]hexan-5-yl)-7-(2,3-dichlorophenyl)-6-fluoro-4-(1-hydroxyethyl)-2-((1R,3R,5R)-2-(1-methylcyclopropane-1-carbonyl)-2-azabicyclo[3.1.0]hexan-3-yl)-1H-pyrrolo[3,2-c]quinolin-8-yl)propanenitrile], the IC50 on KRAS G12D and on KRAS G12V mutant was under 100 nM each time. Besides, in the series on Caco-2 cells (Table 4), the Caco-2 result is reported as “+++ (a Caco-2 value of >1)”.

In the case of `CC(O)c1nc2c(F)c(-c3cccc(Cl)c3Cl)c(CCC#N)cc2c2c1cc([C@@H](C)NC(=O)C1(F)CCC1)n2[C@H]1[C@H]2CN[C@@H]1C2` (stereo partly drawn) [Example 66, N-((1R)-1-(1-((1R,4R,5S)-2-azabicyclo[2.1.1]hexan-5-yl)-8-(2-cyanoethyl)-7-(2,3-dichlorophenyl)-6-fluoro-4-(1-hydroxyethyl)-1H-pyrrolo[3,2-c]quinolin-2-yl)ethyl)-1-fluorocyclobutane-1-carboxamide], the IC50 at KRAS G12D and on KRAS G12V mutant was under 100 nM each time. Moreover, the Caco-2 result in the series with Caco-2 cells (Table 4) is “+++ (a Caco-2 value of >1)”.

As to `CCOc1nc2c(F)c(-c3cc(O)cc(Cl)c3Cl)c(CCC#N)cc2c2c1cc(CN1CCN(C(C)C)CC1=O)n2[C@H]1[C@H]2CN[C@@H]1C2` [Example 16, 3-(1-((1R,4R,5S)-2-azabicyclo[2.1.1]hexan-5-yl)-7-(2,3-dichloro-5-hydroxyphenyl)-4-ethoxy-6-fluoro-2-((4-isopropyl-2-oxopiperazin-1-yl)methyl)-1H-pyrrolo[3,2-c]quinolin-8-yl)propanenitrile], the IC50 on KRAS G12D and on KRAS G12V mutant was under 100 nM each time. Besides, the Caco-2 entry with Caco-2 cells (Table 3) was “+ (a Caco-2 value of 50.5)”.

For the molecule `Cc1nc2c(F)c(-c3cccc(Cl)c3Cl)c(CCC#N)cc2c2c1cc([C@@H](C)NS(=O)(=O)C1CC1)n2[C@H]1[C@H]2CN[C@@H]1C2` [Example 58, N-((1R)-1-(1-((1R,4R,5S)-2-Azabicyclo[2.1.1]hexan-5-yl)-8-(2-cyanoethyl)-7-(2,3-dichlorophenyl)-6-fluoro-4-methyl-1H-pyrrolo[3,2-c]quinolin-2-yl)ethyl)cyclopropanesulfonamide], the IC50 at KRAS G12D and at KRAS G12V mutant was under 100 nM throughout. In addition, the Caco-2 entry with Caco-2 cells (Table 4) is reported as “++ (a Caco-2 value of >0.5 but ≤1)”.

Regarding `CN(C)C1(C)CN(c2nc3c(F)c(-c4cccc5ccc(F)cc45)c(CCC#N)cc3c3c2cc(CN2CCOCC2=O)n3[C@H]2[C@H]3CN[C@@H]2C3)C1` [Example 17, 3-(1-((1R,4R,5S)-2-Azabicyclo[2.1.1]hexan-5-yl)-4-(3-(dimethylamino)-3-methylazetidin-1-yl)-6-fluoro-7-(7-fluoronaphthalen-1-yl)-2-((3-oxomorpholino)methyl)-1H-pyrrolo[3,2-c]quinolin-8-yl)propanenitrile], the IC50 on KRAS G12D and at KRAS G12V mutant was under 100 nM each time. The Caco-2 result with Caco-2 cells (Table 3) is “+ (a Caco-2 value of 50.5)”.

Regarding `COC(=O)N1CCC[C@@H]1c1cc2c(-c3ccc(CN(C)C)c(F)c3F)nc3c(F)c(-c4cccc(Cl)c4Cl)c(CCC#N)cc3c2n1[C@H]1[C@H]2CN[C@@H]1C2` [Example 73, methyl (2R)-2-(1-((1R,4R,5S)-2-Azabicyclo[2.1.1]hexan-5-yl)-8-(2-cyanoethyl)-7-(2,3-dichlorophenyl)-4-(4-((dimethylamino)methyl)-2,3-difluorophenyl)-6-fluoro-1H-pyrrolo[3,2-c]quinolin-2-yl)pyrrolidine-1-carboxylate], the IC50 at KRAS G12D and at KRAS G12V mutant was under 100 nM in each case. In the series on Caco-2 cells (Table 4), the Caco-2 result is given as “+++ (a Caco-2 value of >1)”.

Turning to `C[C@H](Oc1nc2c(F)c(-c3cccc(Cl)c3Cl)c(CCC#N)cc2c2c1cc(CCC(=O)N1CCC1)n2[C@H]1[C@H]2CN[C@@H]1C2)[C@@H]1CCCN1C` [Example 4, 3-(2-(3-(Azetidin-1-yl)-3-oxopropyl)-1-((1R,4R,5S)-2-azabicyclo[2.1.1]hexan-5-yl)-7-(2,3-dichlorophenyl)-6-fluoro-4-((S)-1-((S)-1-methylpyrrolidin-2-yl)ethoxy)-1H-pyrrolo[3,2-c]quinolin-8-yl)propanenitrile], the IC50 on KRAS G12D and on KRAS G12V mutant was under 100 nM each time. For the same molecule, the Caco-2 result in the series with Caco-2 cells (Table 3) is recorded as “+ (a Caco-2 value of 50.5)”.

The values are drawn from patent publication US12378243B2, “Quinoline compounds as inhibitors of KRAS” (Incyte Corporation, priority 2021, dated 2025).
